Results as given in PMC2956513, “Novel tricyclic pyrazole BRAF inhibitors with imidazole or furan central scaffolds” (Bioorganic & Medicinal Chemistry, 2010).

Experiments:
V600EBRAF = V600EBRAF (Homo sapiens, UniProt P15056, V600E); test: V600EBRAF kinase assay (MEK1/2 phosphorylation as endpoint); type: biochemical; details: for IC50: isolated full length V600EBRAF kinase activity; for BRAF activity in words: BRAF IC50 assay
Procedure: (§1) The biological activities of compounds 1a–p were assessed in three assays: • (1) Inhibition of the isolated ^V600EBRAF kinase activity (IC50 BRAF), measuring MEK1/2 phosphorylation as the endpoint.[15] […] We measured the IC50 BRAF values in this paper, since they represent the inhibition of BRAF function which we consider more meaningful than the binding of inhibitor to BRAF. • (2) Inhibition of ^V600EBRAF-dependent ERK phosphorylation in WM266.4 melanoma cells (IC50 pERK). • (3) Growth inhibition of WM266.4 melanoma cells measured by sulforhodamine-B (GI50 SRB).
(§2) These assays have been described by Niculescu-Duvaz et al.[15]

[1] = test system: V600EBRAF-dependent ERK phosphorylation in WM266.4 melanoma cells; test: Phospho-ERK IC50 assay in WM266.4 cells; type: cell-based, human; details: for IC50: Homo sapiens, WM 266-4, 6 h incubation, read-out: IC50 ppERK
Procedure: as §1
To determine the effect of compounds on BRAF activity in cells, WM266.4 cells were seeded at a density of 3 × 10^4 cells per well of a 96 well plate. The following day, test compounds were diluted into growth medium to 2× the desired final concentration and then added directly to the cells. After a 6 h incubation, the medium was removed and cells were fixed and permeabilized in 4% formaldehyde, 0.1% triton X-100 in PBS for 30 min. The wells were then blocked with 5% milk in PBS for 30 min at room temperature, followed by the addition of an antibody for phospho-ERK1/2 (Sigma, Dorset, UK) at […] in blocking solution. Plates were incubated for 3 h with shaking. Plates were washed three times with 0.1% Tween 20 using an ELx50 plate washer (BioTek, Winooski, USA). […] of a Europium-labelled anti-mouse secondary antibody (Perkin Elmer, Turku, Finland) was added to the wells in DELFIA assay buffer for 1 h. Plates were washed again and Enhancement solution was added to the wells and time resolved fluorescence was measured as instructed by the manufacturer after 20 min using a Spectramax M5 plate reader (Molecular Devices, Berkshire, UK). The plates were washed again and BCA protein assay reagent (Sigma, Dorset, UK) was added to the wells and incubated for 30 min at 37 °C. Absorbance at 570 nm was measured using a plate reader and used to normalize the fluorescence data. Inhibition of ERK phosphorylation was determined as a percentage of DMSO-treated cells and IC50 values were calculated using Prism (GraphPad Software, San Diego, USA).

WM266.4 melanoma cells = test: Growth inhibition of WM266.4 cells by sulforhodamine-B (SRB); type: cell-based, human; details: for GI50 / GI50 SRB activity in words: WM266.4 cells; for GI50: sulforhodamine-B
Procedure: as §1, §2

BRAF = BRAF (Homo sapiens, UniProt P15056); test: BRAF fluorescent ligand binding assay; details: alternative BRAF fluorescent ligand binding assay
Chain of BRAF (P15056 whole entry): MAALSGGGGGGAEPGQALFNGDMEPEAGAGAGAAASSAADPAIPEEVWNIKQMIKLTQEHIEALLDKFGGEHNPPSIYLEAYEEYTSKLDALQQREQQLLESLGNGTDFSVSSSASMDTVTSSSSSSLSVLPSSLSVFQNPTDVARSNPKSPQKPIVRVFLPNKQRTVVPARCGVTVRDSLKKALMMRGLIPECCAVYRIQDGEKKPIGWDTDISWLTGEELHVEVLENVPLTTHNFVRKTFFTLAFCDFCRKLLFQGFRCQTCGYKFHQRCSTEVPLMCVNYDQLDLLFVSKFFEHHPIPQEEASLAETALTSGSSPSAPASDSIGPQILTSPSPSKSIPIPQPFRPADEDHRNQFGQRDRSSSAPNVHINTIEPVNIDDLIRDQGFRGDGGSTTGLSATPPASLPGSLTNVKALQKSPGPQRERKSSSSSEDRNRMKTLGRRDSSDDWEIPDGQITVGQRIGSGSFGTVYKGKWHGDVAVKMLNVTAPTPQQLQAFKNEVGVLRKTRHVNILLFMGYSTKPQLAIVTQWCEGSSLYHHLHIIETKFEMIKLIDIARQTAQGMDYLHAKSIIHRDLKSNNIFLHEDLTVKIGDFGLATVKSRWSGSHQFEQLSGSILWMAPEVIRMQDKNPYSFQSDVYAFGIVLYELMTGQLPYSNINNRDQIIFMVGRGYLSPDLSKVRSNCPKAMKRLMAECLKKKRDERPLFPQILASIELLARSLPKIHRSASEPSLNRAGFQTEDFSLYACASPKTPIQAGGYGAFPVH

[2] = PK assessment in mice after intraperitoneal administration; type: in vivo, mouse; details: CD1 nu/nu female mice, intraperitoneal 4 mg/kg, cassette dosing
Procedure: The apparent clearance, half-life (t1/2) and maximal plasma concentration of a representative tricyclic pyrazole, compound 1h, were determined in vivo in CD1 nu/nu female mice following an intraperitoneal administration of 1h.
Female Crl:CD1-Foxn1nu mice at least six weeks of age bearing mutant BRAF WM266.4 human tumor xenografts were used for the PK analyses. The mice were dosed intraperitoneally (4 mg/kg, equivalent to ca. 8 μmol/kg, 10 ml/kg, in 10% ethanol:40% PEG:50% Gelofusine v/v) in a cassette with 4 other compounds. Samples were taken at 8 time-points between 15 min and 24 h. Three mice were utilized per time-point. They were placed under isoflurane anaesthesia and blood for plasma preparation was taken by terminal cardiac puncture into heparinized syringes. Plasma samples were snap frozen in liquid nitrogen and then stored at −70 °C prior to analysis. All procedures involving animals were performed in accordance with national Home Office regulations under the Animals (Scientific Procedures) Act 1986 and within guidelines set out by the Institute’s Animal Ethics Committee and the United Kingdom Coordinating Committee for Cancer Research’s ad hoc Committee on the Welfare of Animals in Experimental Neoplasia.

Chain of V600EBRAF (P15056 whole entry V600E): as the sequence (P15056 whole entry) above, with V600E counted along it

Compound | IC50 (V600EBRAF) [nM] | IC50 [1] [nM] | GI50 (WM266.4 melanoma cells; Homo sapiens, WM 266-4) [nM] | also measured
O=C(c1cc(-c2ccc3c(c2)Cc2cn[nH]c2-3)c(-c2ccncc2)o1)N1CCNCC1 [1n, [4-(2,4-Dihydro-indeno[1,2-c]pyrazol-6-yl)-5-pyridin-4-yl-furan-2-yl]-piperazin-1-yl-methanone] | 2780 | 970 | 1590 | –
O=C(c1cc(-c2ccc3c(c2)Cc2cn[nH]c2-3)c(-c2ccncc2)o1)N1CCOCC1 [1m, [4-(2,4-Dihydro-indeno[1,2-c]pyrazol-6-yl)-5-pyridin-4-yl-furan-2-yl]-morpholin-4-yl-methanone] | 2150 | 840 | 940 | IC50 ppERK activity in words [1]: submicromolar activity; GI50 SRB activity in words (WM266.4 melanoma cells): submicromolar activity
Cc1c[nH]nc1-c1ccc(-c2nc(-c3ccc(OCCN(C)C)cc3)[nH]c2-c2ccncc2)cc1 [1b, Dimethyl-[2-(4-{5-[4-(4-methyl-1H-pyrazol-3-yl)-phenyl]-4-pyridin-4-yl-1H-imidazol-2-yl}-phenoxy)-ethyl]-amine] | 1200 | 2020 | 3900 | –
CN(C)CCOc1ccc(-c2nc(-c3ccc(-c4cc[nH]n4)cc3)c(-c3ccncc3)[nH]2)cc1 [1a, Dimethyl-[2-(4-{5-[4-(1H-pyrazol-3-yl)-phenyl]-4-pyridin-4-yl-1H-imidazol-2-yl}-phenoxy)-ethyl]-amine] | 1600 | 5800 | 7400 | –
CN(C)CCOc1ccc(-c2nc(-c3ccc4c(c3)CC3CC(=O)NN=C43)c(-c3ccncc3)[nH]2)cc1 (centres unmarked) [1g, 7-{2-[4-(2-Dimethylamino-ethoxy)-phenyl]-5-pyridin-4-yl-1H-imidazol-4-yl}-2,4,4a,5-tetrahydro-indeno[1,2-c]pyridazin-3-one] | > 10000 | 100000 | 8900 | –
CN(C)CCN1CCN(C(=O)c2cc(-c3ccc4c(c3)Cc3cn[nH]c3-4)c(-c3ccncc3)o2)CC1 [1l, [4-(2,4-Dihydro-indeno[1,2-c]pyrazol-6-yl)-5-pyridin-4-yl-furan-2-yl]-[4-(2-dimethylamino-ethyl)-piperazin-1-yl]-methanone] | 3600 | 740 | 1610 | –
CN(C)CCOc1ccc(-c2nc(-c3ccc(-c4n[nH]cc4Cl)cc3)c(-c3ccncc3)[nH]2)cc1 [1d, [2-(4-{5-[4-(4-Chloro-1H-pyrazol-3-yl)-phenyl]-4-pyridin-4-yl-1H-imidazol-2-yl}-phenoxy)-ethyl]-dimethyl-amine] | 3700 | 10000 | 4100 | –
CN(C)CCN1CCN(C(=O)c2cc(-c3ccc4c(c3)Cc3cnn(C)c3-4)c(-c3ccncc3)o2)CC1 [1p, [4-(2-Dimethylamino-ethyl)-piperazin-1-yl]-[4-(1-methyl-1,4-dihydro-indeno [1,2-c]pyrazol-6-yl)-5-pyridin-4-yl-furan-2-yl]-methanone] | > 10000 | > 10000 | – | –
CN(C)CCOc1ccc(-c2nc(-c3ccc4c(ccc5cn[nH]c54)c3)c(-c3ccncc3)[nH]2)cc1 [1f, (2-{4-[4-(1H-Benzo[g]indazol-7-yl)-5-pyridin-4-yl-1H-imidazol-2-yl]-phenoxy}-ethyl)-dimethyl-amine] | 1710 | 25000 | 3300 | –
c1cc(-c2[nH]c(C3CCNCC3)nc2-c2ccc3c(c2)Cc2cn[nH]c2-3)ccn1 [1k, 6-(2-Piperidin-4-yl-5-pyridin-4-yl-3H-imidazol-4-yl)-2,4-dihydro-indeno[1,2-c]pyrazole] | 1330 | 4900 | 36000 | –
CN1CCN(c2ccc(-c3nc(-c4ccc5c(c4)Cc4cn[nH]c4-5)c(-c4ccncc4)[nH]3)cc2)CC1 [1j, 6-{2-[4-(4-Methyl-piperazin-1-yl)-phenyl]-5-pyridin-4-yl-3H-imidazol-4-yl}-2,4-dihydro-indeno[1,2-c]pyrazole] | 240 | 580 | 870 | BRAF activity in words (V600EBRAF): submicromolar activity; IC50 ppERK activity in words [1]: submicromolar activity; GI50 SRB activity in words (WM266.4 melanoma cells): submicromolar activity
CN1CCN(C(=O)c2cc(-c3ccc4c(c3)Cc3cn[nH]c3-4)c(-c3ccncc3)o2)CC1 [1o, [4-(2,4-Dihydro-indeno[1,2-c]pyrazol-6-yl)-5-pyridin-4-yl-furan-2-yl]-(4-methyl-piperazin-1-yl)-methanone] | 7500 | 730 | 1910 | –
CN(C)CCOc1ccc(-c2nc(-c3ccc4c(c3)Cc3cn[nH]c3-4)c(-c3ccncc3)[nH]2)cc1 [1h, (2-{4-[5-(2,4-Dihydro-indeno[1,2-c]pyrazol-6-yl)-4-pyridin-4-yl-1H-imidazol-2-yl]-phenoxy}-ethyl)-dimethyl-amine] | 230 | 1090 | 1150 | IC50 (WM266.4 melanoma cells; Homo sapiens, WM 266-4, SRB cellular IC50, value in PK text): 1100 nM; Kd (BRAF): 6.1 nM; half-life ([2]; CD1 nu/nu (Crl:CD1-Foxn1nu), mouse, ip, plasma, read-out: half-life (T1/2) (converted)): 3.9 h; Cmax ([2]; CD1 nu/nu (Crl:CD1-Foxn1nu), mouse, ip, plasma, read-out: maximal plasma concentration (Cmax)): 5.8 µM; plasma clearance (CL) ([2]; apparent clearance): 11 mL/min/kg
CN(C)CCOc1ccc(-c2nc(-c3ccc4c(c3)Cc3nn[nH]c3-4)c(-c3ccncc3)[nH]2)cc1 [1i, (2-{4-[5-(3,8-Dihydro-indeno[1,2-d] [1,2,3]triazol-6-yl)-4-pyridin-4-yl-1H-imidazol-2-yl]-phenoxy}-ethyl)-dimethyl-amine] | > 10000 | 4400 | – | BRAF activity in words (V600EBRAF): inactive
CN(C)CCOc1ccc(-c2nc(-c3ccc(-c4n[nH]cc4C#N)cc3)c(-c3ccncc3)[nH]2)cc1 [1c, 3-(4-{2-[4-(2-Dimethylamino-ethoxy)-phenyl]-5-pyridin-4-yl-3H-imidazol-4-yl}-phenyl)-1H-pyrazole-4-carbonitrile] | > 10000 | > 100000 | 11000 | –
CN(C)CCOc1ccc(-c2nc(-c3ccc4c(c3)CCc3cn[nH]c3-4)c(-c3ccncc3)[nH]2)cc1 [1e, (2-{4-[5-(4,5-Dihydro-2H-benzo[g]indazol-7-yl)-4-pyridin-4-yl-1H-imidazol-2-yl]-phenoxy}-ethyl)-dimethyl-amine] | 1840 | 5800 | – | –
